Laboratory results from PMC11882969 (Nature Communications, 2025).
Where “and” joins values, the source holds several entries; their conditions need not be identical. Identical values can stand only once. Like-named read-outs stand apart in the source and are kept apart here.

Experiments:
[1] = target: hCB1 (Homo sapiens, UniProt P21554); assay: bioSensAll ebBRET signaling profiling, hCB1; type: cell-based; set-up: host or cells: HEK293SL cells, transient PEI transfection; conditions: for RE, relative efficacy: vs CP-55,940; for EC50: read-out: EC50 [95% CI]; for Emax: normalized to CP-55,940
Chain of hCB1 (P21554 whole entry): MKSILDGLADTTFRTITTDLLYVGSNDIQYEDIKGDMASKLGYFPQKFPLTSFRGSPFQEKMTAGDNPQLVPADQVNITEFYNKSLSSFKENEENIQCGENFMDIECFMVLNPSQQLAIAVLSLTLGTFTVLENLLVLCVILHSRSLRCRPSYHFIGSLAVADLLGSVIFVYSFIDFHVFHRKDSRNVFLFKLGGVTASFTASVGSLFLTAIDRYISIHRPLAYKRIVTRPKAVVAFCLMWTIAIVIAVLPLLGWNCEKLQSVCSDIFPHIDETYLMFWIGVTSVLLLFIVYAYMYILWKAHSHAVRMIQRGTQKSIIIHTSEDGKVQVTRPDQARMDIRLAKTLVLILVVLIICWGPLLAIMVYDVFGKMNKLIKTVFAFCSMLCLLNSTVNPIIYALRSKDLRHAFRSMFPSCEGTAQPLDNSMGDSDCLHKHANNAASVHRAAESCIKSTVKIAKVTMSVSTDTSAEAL

[2] = target: CB1 (rCB1) (Rattus norvegicus, UniProt P20272); assay: Radioligand competition binding, [3H]-CP-55,940, rat brain membranes; conditions: for radioligand binding, competition curve point (normalized): log[drug], replicate columns
Chain of CB1 (rCB1) (P20272 whole entry): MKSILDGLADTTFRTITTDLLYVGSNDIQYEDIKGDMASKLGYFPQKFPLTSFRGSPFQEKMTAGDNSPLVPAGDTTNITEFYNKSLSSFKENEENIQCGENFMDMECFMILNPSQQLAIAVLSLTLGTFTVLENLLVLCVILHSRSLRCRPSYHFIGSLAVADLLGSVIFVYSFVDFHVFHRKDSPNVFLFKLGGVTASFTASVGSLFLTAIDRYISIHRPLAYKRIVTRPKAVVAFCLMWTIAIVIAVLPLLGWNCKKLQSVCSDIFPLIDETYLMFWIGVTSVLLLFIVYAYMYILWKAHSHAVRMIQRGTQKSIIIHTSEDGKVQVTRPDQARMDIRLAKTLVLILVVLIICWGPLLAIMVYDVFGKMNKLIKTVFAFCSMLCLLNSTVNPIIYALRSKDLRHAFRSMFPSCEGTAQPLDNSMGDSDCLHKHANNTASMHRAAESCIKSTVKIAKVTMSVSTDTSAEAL

## COC(=O)[C@@](C)(NC(=O)c1cc(C)n(-c2cccc(C(F)(F)F)c2)n1)c1cccs1 [‘1350]
[1]; Log [Compound] (M) -8.22186
  G15 hCB1: 108.751 and 98.1326
  Gi1 hCB1: 92.6788 and 89.3236 and 99.6444
  Gi2 hCB1: 103.598 and 95.5013
  GoB hCB1: 98.7737 and 93.6765
  Gq hCB1: 1076
  Gs hCB1: 6277
  Gz hCB1: 86.1167 and 125.84
[1]; Log [Compound] (M) -8.39794
  Barr2+GRK2 hCB1: 29.9976 and 37.6342 and 37.3728
  G15 hCB1: 102.447 and 90.505
  Gi1 hCB1: 89.9355 and 81.3893 and 90.8265
  Gi2 hCB1: 93.2678 and 81.238
  GoB hCB1: 91.7888 and 85.5166 and 90.3229
  Gq hCB1: 1079
  Gs hCB1: 6774
  Gz hCB1: 90.3591 and 90.0229
[1]; Log [Compound] (M) -8.68787
  G13 hCB1: 53.1584 and 35.4081
  G15 hCB1: 102.996 and 87.3488
  Gi1 hCB1: 91.5518 and 80.8983 and 96.1797
  Gi2 hCB1: 100.616 and 73.0934
  GoB hCB1: 87.9026 and 94.3015 and 102.463
  Gq hCB1: 1093
  Gs hCB1: 6188
  Gz hCB1: 71.525 and 105.899
[1]; Log [Compound] (M) -9.15521
  G13 hCB1: 29.8642 and 17.8839
  G15 hCB1: 73.5984 and 77.2225
  Gi1 hCB1: 81.1718 and 69.1157 and 80.6507
  Gi2 hCB1: 77.4138 and 61.2639
  GoB hCB1: 71.2656 and 63.2418 and 86.0488
  Gq hCB1: 979
  Gs hCB1: 6053
  Gz hCB1: 50.0303 and 83.0974
[1]; Log [Compound] (M) -9.61989
  G15 hCB1: 46.4936 and 49.8683
  Gi1 hCB1: 46.5026 and 32.8966 and 52.9951
  Gi2 hCB1: 46.1296 and 39.0463
  GoB hCB1: 41.2683 and 36.2447 and 42.156
  Gq hCB1: 993
  Gs hCB1: 6331
[1]; Log [Compound] (M) -10.0969
  G15 hCB1: 22.2784 and 20.2785
  Gi2 hCB1: 20.3201 and 12.6408
  GoB hCB1: 15.6017 and 12.0427 and 18.9365
  Gq hCB1: 1040
  Gs hCB1: 6351
[1]; Log [Compound] (M) -10.5529
  G15 hCB1: 10.1469 and 8.811
  Gq hCB1: 1032
  Gs hCB1: 6578
[1]; Log [Compound] (M) -11.0177
  Gq hCB1: 1054
  Gs hCB1: 6308
[1]; Log [Compound] (M) -11.4949
  Gq hCB1: 1050
  Gs hCB1: 6446
[1]; Log [Compound] (M) -11.9208
  Gq hCB1: 1129
  Gs hCB1: 6648
[1]; Log [Compound] (M) -12.3979
  Gq hCB1: 1059
  Gs hCB1: 6648
[1]; Log [Compound] (M) -12.8861
  Gq hCB1: 1070
  Gs hCB1: 6918
[1]; hCB1 G13
  pEC50 [95% CI]: 9.08 [8.6 – 9.6]
  RE, relative efficacy: 1.64
  EC50: 0.83 nM
[1]; hCB1 G15
  RE, relative efficacy: 1.14
  EC50: 0.22 nM
[1]; hCB1 Gi1
  pEC50 [95% CI]: 9.63 [9.5 – 9.7]
  RE, relative efficacy: 1.98
  EC50: 0.23 nM
[1]; hCB1 Gi2
  RE, relative efficacy: 1.89
  EC50: 0.28 nM
[1]; hCB1 GoB
  RE, relative efficacy: 2.24
  EC50: 0.29 nM
[1]; hCB1 Gz
  RE, relative efficacy: 0.77
  EC50: 0.35 nM
[1]; hCB1 ßarr2+GRK2
  RE, relative efficacy: 1.16
[1]; hCB1 Barr2 + GRK2
  EC50: 2.2 nM
[1]; read-out: Emax [95% CI], hCB1 Barr2 + GRK2
  Emax: 63%
[1]; read-out: Emax [95% CI], hCB1 G13
  Emax: 56%
[1]; read-out: Emax [95% CI], hCB1 G15
  Emax: 99%
[1]; read-out: Emax [95% CI], hCB1 Gi1
  Emax: 92%
[1]; read-out: Emax [95% CI], hCB1 Gi2
  Emax: 95%
[1]; read-out: Emax [95% CI], hCB1 GoB
  Emax: 98%
[1]; read-out: Emax [95% CI], hCB1 Gz
  Emax: 94%
[2]; LLE = pIC50 − clogP
  LLE (lipophilic ligand efficiency): 4.7
[2]; from rCB1 affinity
  LE (ligand efficiency): 0.41
[2]; rCB1
  pKi [95% CI]: 9.0 [8.9 – 9.1] and 9.02 [8.9 – 9.1]
[2]; rCB1, M = -6.643
  radioligand binding, competition curve point (normalized): -0.744 and -7.487 and -3.298
[2]; rCB1, M = -7.357
  radioligand binding, competition curve point (normalized): -0.8036 and -4.1 and -0.2377
[2]; rCB1, M = -8.07
  radioligand binding, competition curve point (normalized): 10.2232 and 5.66 and 5.585
[2]; rCB1, M = -8.783
  radioligand binding, competition curve point (normalized): 48.7054 and 44.7118 and 50.1783
[2]; rCB1, M = -9.496
  radioligand binding, competition curve point (normalized): 85.9821 and 91.8301 and 85.5615
[2]; rCB1, M = -10.21
  radioligand binding, competition curve point (normalized): 99.5833 and 109.715 and 87.0469
[2]; rCB1, M = -11.923
  radioligand binding, competition curve point (normalized): 90.0893 and 95.7219 and 98.7077
[2]; rCB1, M = -13.636
  radioligand binding, competition curve point (normalized): 93.4375 and 98.1283
[2]; rCB1 binding
  fold more potent than CP-55,940: 3 fold
[2]; vs parent hit or analog without the change
  fold improvement in CB1R affinity: ~50 fold
